We go through twelve molecules from US10172868B2, “Substituted quinazolines for inhibiting kinase activity” (NeuPharma, Inc., priority 2013, dated 2019).

One experiment deals with H1299 cells. Put plainly: Inhibition of cancer cell growth, MTT assay, H1299. Particulars: Homo sapiens, NCI-H1299, 72 h, read-out: IC50 in H1299 cells.
The next experiment has as its system H1975 cells. The experiment is described as follows: Inhibition of cancer cell growth, MTT assay, H1975. Particulars: Homo sapiens, NCI-H1975, 72 h, read-out: IC50 in H1975 cells.
The test system of the next experiment is A431 cells. The experiment is described as follows: cells. To be noted: Homo sapiens, A-431, 72 h, read-out: IC50 in A431 cells.
For a further experiment, the system named is HCC827 cells. The experiment is described as follows: cells. Particulars: Homo sapiens, HCC827, 72 h, read-out: IC50 in HCC827 cells.
The target of the next experiment is FGFR1 (Homo sapiens (Human), UniProt P11362). The experiment is described as follows: Z'-LYTE kinase inhibition assay, FGFR1. Particulars: compound at 0.041 μM; read-out: % inhibition against FGFR1. In kind it is biochemical. As to the method: Inhibitory activities of compounds against BTK, EGFR and EGFR mutants (EGFR L858R, EGFR T790M, EGFR L858R/T790M), FGFR1, FGFR2, JAK2, JAK3 and KDR were measured by Invitrogen using Z'-LYTE® Method as briefly described in the following.
Test Compounds are screened in 1% DMSO (final) in the well. For 10 point titrations, 3-fold serial dilutions are conducted from the starting concentration. All ATP Solutions are diluted to a 4× working concentration in Kinase Buffer (50 mM HEPES pH 7.5, 0.01% BRIJ-35, 10 mM MgCl2, 1 mM EGTA). Peptide/Kinase Mixtures are diluted to a 2× working concentration in the appropriate Kinase Buffers as described below.
(v) Peptide/Kinase Mixtures for Measurement of FGFR1:
The 2×FGFR1/Tyr 04 mixture is prepared in 50 mM HEPES pH 7.5, 0.01% BRIJ-35, 10 mM MgCl2, 4 mM MnCl2, 1 mM EGTA, 2 mM DTT. The final 10 μL Kinase Reaction consists of 0.41-3.5 ng FGFR1 and 2 μM Tyr 04 in 50 mM HEPES pH 7.5, 0.01% BRIJ-35, 10 mM MgCl2, 2 mM MnCl2, 1 mM EGTA, 1 mM DTT. After the 1 hour Kinase Reaction incubation, 5 μL of a 1:64 dilution of Development Reagent B is added.
Reaction starts by 30-second shaking of mixture consisting of 2.5 μL 4× test compound, […] 2× kinase reaction mixture and 2.5 μL 4×ATP Solution on Bar-coded Corning, low volume NBS, black 384-well plate (Corning Cat. #3676). Then the mixture is incubated for 60-minute at room temperature for the kinase reaction, followed by addition of 5 μL of a 1:1024 dilution of development reagent A and 30-second plate shake. The mixture is then incubated for another 60-minute at room temperature for development reaction. Finally fluorescence is read by plate reader.
To determine IC50 of a compound against EGFR, EGFR mutant and other kinases, a series of concentrations of the compound were tested for the inhibition. […] The scale utilized in Table 4 is as follows: +++ less than 100 nM, ++ 100-500 nM and + greater than 500 nM.

For a further experiment, the target named is EGFR (ErbB1) T790M L858R (Homo sapiens (Human), UniProt P00533, L858R/T790M). Put plainly: Z'-LYTE kinase inhibition assay, EGFR L858R/T790M. In kind it is biochemical. Particulars: for inhibition at 1 µM: read-out: % inhibition against EGFR L858R/T790M (Compound at 1 μM); for IC50: read-out: IC50 against EGFR L858R/T790M; for inhibition at 0.0137 µM: read-out: % inhibition against EGFR L858R/T790M (Compound at 0.0137 μM). The procedure, abridged:
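IC50 taken from 10-point, 3-fold serial dilutions tested in 1% DMSO. The mutant kinase and peptide were prepared in HEPES pH 6.5 buffer with BRIJ-35, MgCl2, EGTA and NaN3, then reacted with ATP for 1 h at room temperature. Development reagent was added for a further hour before the fluorescence readout.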

The target in the next experiment is EGFR (ErbB1) (Homo sapiens (Human), UniProt P00533). Put plainly: Z'-LYTE kinase inhibition assay, EGFR. Format: biochemical. To be noted: for inhibition at 0.041 µM: read-out: % inhibition against EGFR (Compound at 0.041 μM); for IC50: read-out: IC50 against EGFR. The procedure, abridged: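 IC50 values derived from 10-point, 3-fold compound dilution series (1% DMSO final) using Z'-LYTE fluorescence readout after 60-min development. Reaction: EGFR (1.1-5.25 ng) with 2 μM peptide, 60 min at room temperature in HEPES pH 7.5 buffer containing MgCl2, MnCl2, EGTA, DTT and BRIJ-35.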

For another experiment, the system named is H3255 cells. The experiment is described as follows: Inhibition of cancer cell growth, MTT assay, H3255. To be noted: Homo sapiens, NCI-H3255, 72 h, read-out: IC50 in H3255 cells.
A further experiment concerns the target BTK (Homo sapiens (Human), UniProt Q06187). The experiment is described as follows: Z'-LYTE kinase inhibition assay, BTK. Format: biochemical. To be noted: read-out: IC50 against BTK. The procedure, abridged:
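Z'-LYTE FRET assay with Tyr 01 peptide in 50 mM HEPES pH 7.5, 10 mM MgCl2, 1 mM EGTA, 0.01% BRIJ-35. Compounds in 1% DMSO were tested as 10-point, 3-fold titrations.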

Another experiment has as its system H1975 tumor xenografts. Put plainly: Inhibition of tumor growth in H1975 xenograft model. Format: in vivo, BALB/c female nude mice. To be noted: Table 7 study, 60 mg/kg, Oral, QD x 14; for Tumor Volume Pre-treatment: baseline before treatment. As for the experimental part:
H1975 cells were implanted in BALB/c female nude mice and grown as tumor xenografts. When tumors achieved 120-200 mm^3, mice were assigned into treatment and control groups using randomized block design based upon their tumor volumes. Each group contained 6 tumor-bearing mice. Tumors were measured twice weekly in two dimensions using a caliper, and the tumor volume was calculated from two-dimensional measurements using the equation V=0.5×a×b^2 where a and b are the long and short diameters of the tumor, respectively. Relative tumor volume (RTV) was defined as TVt/TVi, the ratio of the volume on a given day (TVt) and the volume at the start of treatment (TVi). Relative tumor growth rate (T/C) was defined as RTVT/RTVC, the ratio of relative tumor volume of treatment group (RTVT) and relative tumor volume of control group (RTVC) on a given day.

EGFR (ErbB1) T790M L858R, sequence (P00533 25-1210 T790M/L858R): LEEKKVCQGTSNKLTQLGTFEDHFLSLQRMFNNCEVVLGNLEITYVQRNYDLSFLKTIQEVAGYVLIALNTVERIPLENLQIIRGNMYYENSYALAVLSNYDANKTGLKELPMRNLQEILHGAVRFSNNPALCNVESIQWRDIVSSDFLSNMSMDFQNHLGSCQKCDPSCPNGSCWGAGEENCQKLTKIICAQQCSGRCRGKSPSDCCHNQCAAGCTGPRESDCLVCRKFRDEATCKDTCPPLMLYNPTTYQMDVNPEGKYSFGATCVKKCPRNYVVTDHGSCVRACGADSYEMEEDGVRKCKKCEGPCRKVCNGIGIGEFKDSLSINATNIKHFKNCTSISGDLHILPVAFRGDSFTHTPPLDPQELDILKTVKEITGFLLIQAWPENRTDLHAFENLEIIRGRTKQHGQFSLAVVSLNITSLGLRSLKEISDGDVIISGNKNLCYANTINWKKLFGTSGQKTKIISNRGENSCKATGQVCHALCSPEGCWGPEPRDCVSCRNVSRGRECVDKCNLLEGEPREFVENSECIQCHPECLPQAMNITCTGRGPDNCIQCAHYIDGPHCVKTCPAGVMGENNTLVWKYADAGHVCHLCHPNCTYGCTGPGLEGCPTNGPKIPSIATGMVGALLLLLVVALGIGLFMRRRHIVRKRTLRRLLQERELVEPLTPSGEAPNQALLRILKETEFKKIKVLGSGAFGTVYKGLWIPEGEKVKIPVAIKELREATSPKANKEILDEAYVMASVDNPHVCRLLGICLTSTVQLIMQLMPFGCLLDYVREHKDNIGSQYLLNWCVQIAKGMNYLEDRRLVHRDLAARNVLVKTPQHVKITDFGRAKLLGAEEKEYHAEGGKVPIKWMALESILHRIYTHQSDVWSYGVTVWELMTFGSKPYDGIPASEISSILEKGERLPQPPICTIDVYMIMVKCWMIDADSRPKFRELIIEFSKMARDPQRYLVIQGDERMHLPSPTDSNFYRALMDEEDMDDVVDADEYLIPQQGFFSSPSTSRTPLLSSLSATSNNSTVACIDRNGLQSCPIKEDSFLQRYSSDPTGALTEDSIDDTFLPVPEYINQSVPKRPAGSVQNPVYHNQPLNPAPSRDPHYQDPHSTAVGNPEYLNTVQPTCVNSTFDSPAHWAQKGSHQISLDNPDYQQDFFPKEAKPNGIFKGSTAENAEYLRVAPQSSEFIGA
EGFR (ErbB1), sequence (P00533 25-1210): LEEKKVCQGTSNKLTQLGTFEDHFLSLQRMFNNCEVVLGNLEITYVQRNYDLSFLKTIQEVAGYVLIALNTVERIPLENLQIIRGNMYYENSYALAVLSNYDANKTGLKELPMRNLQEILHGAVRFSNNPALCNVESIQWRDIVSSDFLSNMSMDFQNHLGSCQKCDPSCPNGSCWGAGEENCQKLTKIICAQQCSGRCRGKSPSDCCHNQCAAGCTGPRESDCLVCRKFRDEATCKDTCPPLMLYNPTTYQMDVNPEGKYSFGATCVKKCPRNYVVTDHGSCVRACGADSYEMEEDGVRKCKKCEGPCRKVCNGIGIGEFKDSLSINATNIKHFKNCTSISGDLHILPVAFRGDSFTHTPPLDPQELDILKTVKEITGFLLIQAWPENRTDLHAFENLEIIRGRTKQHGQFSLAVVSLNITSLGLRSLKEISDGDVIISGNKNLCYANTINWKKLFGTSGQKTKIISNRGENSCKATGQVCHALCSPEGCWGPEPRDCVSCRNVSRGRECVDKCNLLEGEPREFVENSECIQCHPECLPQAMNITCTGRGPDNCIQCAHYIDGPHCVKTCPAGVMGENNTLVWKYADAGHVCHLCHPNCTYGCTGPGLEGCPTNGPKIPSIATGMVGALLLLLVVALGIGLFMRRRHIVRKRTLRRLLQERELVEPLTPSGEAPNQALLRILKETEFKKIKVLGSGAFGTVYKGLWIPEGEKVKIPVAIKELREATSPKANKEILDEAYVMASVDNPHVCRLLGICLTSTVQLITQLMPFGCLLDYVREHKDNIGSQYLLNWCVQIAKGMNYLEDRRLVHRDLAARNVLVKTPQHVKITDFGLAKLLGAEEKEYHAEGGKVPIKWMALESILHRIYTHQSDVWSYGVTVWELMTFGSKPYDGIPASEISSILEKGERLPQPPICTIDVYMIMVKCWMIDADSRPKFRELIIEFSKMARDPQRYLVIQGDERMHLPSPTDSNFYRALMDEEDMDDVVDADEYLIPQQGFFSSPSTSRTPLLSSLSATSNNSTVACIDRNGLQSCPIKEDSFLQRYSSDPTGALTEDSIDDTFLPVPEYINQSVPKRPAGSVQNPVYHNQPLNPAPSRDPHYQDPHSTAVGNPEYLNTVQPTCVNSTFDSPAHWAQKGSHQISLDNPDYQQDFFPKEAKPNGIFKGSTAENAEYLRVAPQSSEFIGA
FGFR1, sequence (P11362 22-822): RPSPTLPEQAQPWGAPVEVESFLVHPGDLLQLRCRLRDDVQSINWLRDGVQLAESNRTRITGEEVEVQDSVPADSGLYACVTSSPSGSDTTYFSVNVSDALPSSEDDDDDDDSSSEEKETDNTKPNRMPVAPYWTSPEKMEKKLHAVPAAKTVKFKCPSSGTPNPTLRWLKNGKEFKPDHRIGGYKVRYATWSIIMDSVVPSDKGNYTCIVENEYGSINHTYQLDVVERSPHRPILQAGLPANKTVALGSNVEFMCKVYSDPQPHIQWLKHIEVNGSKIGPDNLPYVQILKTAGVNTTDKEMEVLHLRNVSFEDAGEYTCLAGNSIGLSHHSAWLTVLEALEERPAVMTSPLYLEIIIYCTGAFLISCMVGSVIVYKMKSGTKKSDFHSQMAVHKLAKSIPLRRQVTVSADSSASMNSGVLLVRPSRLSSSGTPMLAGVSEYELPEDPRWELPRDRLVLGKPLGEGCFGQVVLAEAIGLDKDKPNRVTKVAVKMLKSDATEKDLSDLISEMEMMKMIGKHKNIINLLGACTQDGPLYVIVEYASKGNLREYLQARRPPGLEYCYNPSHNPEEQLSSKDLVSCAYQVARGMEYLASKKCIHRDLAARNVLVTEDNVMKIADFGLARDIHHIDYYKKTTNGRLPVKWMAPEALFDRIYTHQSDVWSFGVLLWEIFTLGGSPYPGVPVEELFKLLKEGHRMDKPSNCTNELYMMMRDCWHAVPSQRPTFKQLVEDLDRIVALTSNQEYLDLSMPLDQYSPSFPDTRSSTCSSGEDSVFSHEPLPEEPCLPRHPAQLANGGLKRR
BTK, sequence (Q06187 whole entry): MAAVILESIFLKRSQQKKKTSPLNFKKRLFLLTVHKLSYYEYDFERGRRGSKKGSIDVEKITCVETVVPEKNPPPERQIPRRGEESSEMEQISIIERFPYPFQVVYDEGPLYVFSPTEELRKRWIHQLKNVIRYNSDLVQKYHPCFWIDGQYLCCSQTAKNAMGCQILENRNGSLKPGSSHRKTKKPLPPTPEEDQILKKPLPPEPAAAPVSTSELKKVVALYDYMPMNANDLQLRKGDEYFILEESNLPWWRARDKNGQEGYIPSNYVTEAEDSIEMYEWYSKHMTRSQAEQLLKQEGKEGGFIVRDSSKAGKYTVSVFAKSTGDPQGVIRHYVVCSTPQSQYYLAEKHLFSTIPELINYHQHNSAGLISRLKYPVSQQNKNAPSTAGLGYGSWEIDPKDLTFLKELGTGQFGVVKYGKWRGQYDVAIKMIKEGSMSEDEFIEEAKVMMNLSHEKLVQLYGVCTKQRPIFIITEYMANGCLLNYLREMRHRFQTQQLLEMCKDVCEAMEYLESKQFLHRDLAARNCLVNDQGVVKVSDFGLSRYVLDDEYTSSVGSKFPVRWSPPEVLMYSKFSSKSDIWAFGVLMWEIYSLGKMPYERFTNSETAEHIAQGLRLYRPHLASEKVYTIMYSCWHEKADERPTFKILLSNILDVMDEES
Description for H1299 cells: (§1) Inhibition of cell growth by compounds was measured using MTT assay (Mosmann, T., Journal of Immunological Methods, 1983, 65, 55-63). Tumor cell lines were purchased from ATCC (American Type Culture Collection, Manassas, Va.). All cell lines were maintained in RPMI 1640 (Hyclone) supplemented with 10% fetal bovine serum (FBS, Hyclone), glutamine (2 mM, Hyclone), and antibiotics (penicillin 100 U/mL and streptomycin 50 μg/mL) at 37° C. in a humidified atmosphere of 5% CO2 in air. Taxol (as a positive control. Sigma) and compounds were dissolved in DMSO (Sigma), and the final concentration of DMSO in the medium was 1%. Tumor cells were plated in 96-well plates at densities of about 4000 cells/well of a 96-well plate and allowed to adhere/grow for 24 h. They were then treated with various concentrations of drug for 72 h, 3-(4,5-Dimethylthiazol-2-yl)-2,5-diphenyltetrazolium bromide (MTT, Sigma) was used to determine the number of viable cells at the time of compound addition and the number of cells remaining after 72 h compound exposure. The number of cells remaining after 72 h was compared to the number of viable cells at the time of compound addition by measuring the absorbance at 570 nm, allowing for the calculation of growth inhibition.
(§2) All concentrations of compounds were tested in triplicate and controls were averaged over 4 wells. IC50 was calculated by plotting the concentration of compound vs the percentage of inhibition in treated wells using GraphPad Prism 5.
Description for H1975 cells: as §1, §2
Description for H3255 cells: as §1, §2

With `C=CC(=O)Nc1cccc(-c2c(C)ccc3cnc(Nc4ccc(N5CCN(C(C)=O)CC5)cc4)nc23)c1` [Example C035, N-(3-(2-((4-(4-acetylpiperazin-1-yl)phenyl)amino)-7-methylquinazolin-8-yl)phenyl)acrylamide], the IC50 was greater than 500 nM in the experiment on H1299 cells, less than 100 nM with H1975 cells, greater than 500 nM with A431 cells and less than 100 nM in the experiment with HCC827 cells.
In the case of `C=CC(=O)Nc1cncc(-c2cccc3cnc(Nc4ccc(N5CCN(C(C)=O)CC5)cc4)nc23)c1` [Example C039, N-(5-(2-((4-(4-acetylpiperazin-1-yl)phenyl)amino)quinazolin-8-yl)pyridin-3-yl)acrylamide], the IC50 is greater than 500 nM with H1299 cells, 100 to 500 nM in the experiment with H1975 cells and less than 100 nM in the experiment with HCC827 cells.
As to `Fc1ccccc1-c1cccc2cnc(Nc3ccc(N4CCNCC4)cc3)nc12` [Example C031, 8-(2-fluorophenyl)-N-(4-(piperazin-1-yl)phenyl)quinazolin-2-amine], at FGFR1, the inhibition at 0.041 µM was greater than 50%. Further, the inhibition at 1 µM on EGFR (ErbB1) T790M L858R and at EGFR (ErbB1) (read-out: % inhibition against EGFR (Compound at 1 μM)) was greater than 50% in each case. Moreover, the IC50 with H1975 cells and in the experiment on HCC827 cells was greater than 500 nM in each case.
As for `CCC(=O)Nc1cccc(-c2cccc3cnc(Nc4ccc(N5CCN(C)CC5)cc4)nc23)c1` [Example C020, N-(3-(2-((4-(4-methylpiperazin-1-yl)phenyl)amino)quinazolin-8-yl)phenyl)propionamide], the inhibition at 0.041 µM at FGFR1 was greater than 50%. Also, the inhibition at 1 µM at EGFR (ErbB1) T790M L858R was greater than 50%. For the same molecule, the IC50 with H1975 cells and with HCC827 cells was greater than 500 nM throughout.
For `C=CC(=O)Nc1cccc(-c2cccc3cnc(Nc4ccc(N5CCN(CCO)CC5)c(F)c4F)nc23)c1` [Example C151, N-(3-(2-((2,3-difluoro-4-(4-(2-hydroxyethyl)piperazin-1-yl)phenyl)amino)quinazolin-8-yl)phenyl)acrylamide], the IC50 is less than 100 nM on EGFR (ErbB1) T790M L858R; greater than 500 nM with H3255 cells; less than 100 nM on BTK; less than 100 nM with H1975 cells; 100 to 500 nM in the experiment with A431 cells; less than 100 nM in the experiment with HCC827 cells. Further, the IC50 on EGFR (ErbB1) is less than 100 nM. For the same molecule, in the experiment on H1975 tumor xenografts, the “T/C (relative tumor growth rate)” value is reported as 28.6%. In the experiment with H1975 tumor xenografts, the “Tumor Volume Post-treatment” value stood at 462 mm3. Also, the “Tumor Volume Pre-treatment” value with H1975 tumor xenografts is 229 mm3. The inhibition at 0.041 µM on EGFR (ErbB1) was less than 50%.
Turning to `Clc1cccc(-c2cccc3cnc(Nc4ccc(N5CCNCC5)cc4)nc23)c1` [Example C025, 8-(3-chlorophenyl)-N-(4-(piperazin-1-yl)phenyl)quinazolin-2-amine], at FGFR1, the inhibition at 0.041 µM was greater than 50%. Moreover, at EGFR (ErbB1) T790M L858R, the inhibition at 1 µM was greater than 50%. Moreover, the IC50 in the experiment on H1975 cells and in the experiment with HCC827 cells was greater than 500 nM throughout.
Consider `C=CC(=O)Nc1cccc(-c2cccc3cnc(Nc4ccc(N5CCN(C)CC5)c(F)c4F)nc23)c1` [Example C156, N-(3-(2-((2,3-difluoro-4-(4-methylpiperazin-1-yl)phenyl)amino)quinazolin-8-yl)phenyl)acrylamide], for which the IC50 at EGFR (ErbB1) T790M L858R is less than 100 nM; in the experiment on H3255 cells, greater than 500 nM; in the experiment with H1975 cells, less than 100 nM; in the experiment on A431 cells, 100 to 500 nM; in the experiment on HCC827 cells, less than 100 nM; on EGFR (ErbB1), less than 100 nM. The “T/C (relative tumor growth rate)” value in the experiment on H1975 tumor xenografts is 36.8%. For the same molecule, in the experiment with H1975 tumor xenografts, the “Tumor Volume Post-treatment” value was determined as 594 mm3. For the same molecule, the “Tumor Volume Pre-treatment” value in the experiment with H1975 tumor xenografts turned out to be 232 mm3.
For `C=CC(=O)Nc1cccc(-c2cccc3cnc(Nc4cnc(N5CCN(C)CC5)nc4)nc23)c1` [Example C046, N-(3-(2-((2-(4-methylpiperazin-1-yl)pyrimidin-5-yl)amino)quinazolin-8-yl)phenyl)acrylamide], the inhibition at 0.0137 µM at EGFR (ErbB1) T790M L858R is greater than 50%. For the same molecule, the IC50 was greater than 500 nM in the experiment with H1299 cells, less than 100 nM in the experiment on H1975 cells and greater than 500 nM in the experiment with A431 cells. Also, the inhibition at 0.041 µM on EGFR (ErbB1) is greater than 50%.
Consider `C=CC(=O)Nc1cccc(-c2cccc3cnc(Nc4ccc(N5CCN(C)CC5)c(OC)c4)nc23)c1` [Example C075, N-(3-(2-((3-methoxy-4-(4-methylpiperazin-1-yl)phenyl)amino)quinazolin-8-yl)phenyl)acrylamide], for which the inhibition at 0.041 µM on FGFR1 and on EGFR (ErbB1) was greater than 50% in each case. In addition, the inhibition at 0.0137 µM at EGFR (ErbB1) T790M L858R is greater than 50%. Further, the IC50 was less than 100 nM at EGFR (ErbB1) T790M L858R, less than 100 nM with H1975 cells and 100 to 500 nM with A431 cells.
`Fc1cccc(-c2cccc3cnc(Nc4ccc(N5CCNCC5)cc4)nc23)c1` [Example C027, 8-(3-fluorophenyl)-N-(4-(piperazin-1-yl)phenyl)quinazolin-2-amine]: the inhibition at 0.041 µM at FGFR1 was greater than 50%. In addition, the inhibition at 1 µM on EGFR (ErbB1) T790M L858R is greater than 50%. Moreover, the IC50 with H1975 cells was greater than 500 nM; in the experiment on HCC827 cells it was 100 to 500 nM.
Regarding `C=CC(=O)Nc1cccc(-c2cccc3cnc(Nc4ccc(N5CCN(CCO)CC5)cc4F)nc23)c1` [Example C147, N-(3-(2-((2-fluoro-4-(4-(2-hydroxyethyl)piperazin-1-yl)phenyl)amino)quinazolin-8-yl)phenyl)acrylamide], the IC50 on EGFR (ErbB1) T790M L858R was less than 100 nM; in the experiment on H3255 cells, greater than 500 nM; at BTK, less than 100 nM; with H1975 cells it was less than 100 nM; in the experiment on A431 cells it was 100 to 500 nM; with HCC827 cells it was less than 100 nM. Moreover, at EGFR (ErbB1), the IC50 is less than 100 nM. Besides, the “T/C (relative tumor growth rate)” value with H1975 tumor xenografts is 55.7%. Besides, the “Tumor Volume Post-treatment” value in the experiment with H1975 tumor xenografts was found to be 898 mm3. Also, the “Tumor Volume Pre-treatment” value in the experiment on H1975 tumor xenografts was determined as 240 mm3. In addition, the inhibition at 0.041 µM at EGFR (ErbB1) is less than 50%.
Turning to `C=CC(=O)Nc1cccc(-c2cccc3cnc(Nc4ccc(N5CCN(C(C)=O)CC5)cc4)nc23)c1Cl` [Example C051, N-(3-(2-((4-(4-acetylpiperazin-1-yl)phenyl)amino)quinazolin-8-yl)-2-chlorophenyl)acrylamide], the inhibition at 0.041 µM on FGFR1 and at EGFR (ErbB1) was less than 50% in each case. Besides, the inhibition at 0.0137 µM on EGFR (ErbB1) T790M L858R is greater than 50%. Further, the IC50 with H1975 cells was 100 to 500 nM; in the experiment with A431 cells, greater than 500 nM.
